# Laboratory results taken from PubChem BioAssay (NCI).
#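 In this assay, cells in 96-well plates receive the compound at five concentrations for 48 hours. Endpoints are linearly interpolated between the surrounding concentrations. TGI: concentration producing complete growth inhibition.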
# Columns and labels:
# Test in all cases: NCI tumour cell line growth inhibition, 48 h
# [1] = test system: NCI-H522 lung
# [2] = test system: NCI-H226 lung
# [3] = test system: SK-MEL-28 melanoma
# [4] = test system: UACC-257 melanoma
# [5] = test system: LOX IMVI melanoma
# [6] = test system: NCI/ADR-RES ovarian
# [7] = test system: HOP-62 NSCLC
# [8] = test system: HOP-18 NSCLC
# [9] = test system: DMS 114 small cell lung
# [10] = test system: MOLT-4 leukemia
# [11] = test system: SN12K1 renal
# [12] = test system: SK-MEL-2 melanoma
# [13] = test system: XF 498 CNS
# [14] = test system: NCI-H23 lung
# [15] = test system: CAKI-1 renal
# [16] = test system: SNB-75 CNS
# [17] = test system: RPMI-8226 leukemia
# [18] = test system: RXF 393 renal
# [19] = test system: OVCAR-4 ovarian
# [20] = test system: MCF7 breast
# [21] = test system: HCT-116 colon
# [22] = test system: UO-31 renal
# [23] = test system: DLD-1 colon
# [24] = test system: OVCAR-3 ovarian
# [25] = test system: HCT-15 colon
# [26] = test system: U251 CNS
# [27] = test system: HOP-92 NSCLC
# [28] = test system: HL-60(TB) leukemia
# [29] = test system: SW-620 colon
# [30] = test system: SK-OV-3 ovarian
# [31] = test system: CCRF-CEM leukemia
# [32] = test system: KM12 colon
# [33] = test system: EKVX NSCLC
# [34] = test system: A549 NSCLC
# [35] = test system: OVCAR-8 ovarian
# [36] = test system: KM20L2 colon
# [37] = test system: NCI-H460 lung
# [38] = test system: SF-539 CNS
# [39] = test system: SNB-78 CNS
# [40] = test system: OVCAR-5 ovarian
# [41] = test system: SF-295 CNS
# [42] = test system: P388 leukemia
# [43] = test system: SNB-19 CNS
# [44] = test system: SN12C renal
# [45] = test system: SF-268 CNS
# [46] = test system: MALME-3M melanoma
# [47] = test system: HT29 colon
# [48] = test system: A498 renal
# [49] = test system: IGROV1 ovarian
# [50] = test system: K-562 leukemia
# [51] = test system: HCC-2998 colon
# [52] = test system: COLO 205 colon
# [53] = test system: SK-MEL-5 melanoma
# [54] = test system: DMS 273 small cell lung
# [55] = test system: UACC-62 melanoma
# [56] = test system: M14 melanoma
# [57] = test system: RXF-631 renal
# [58] = test system: 786-0 renal
# [59] = test system: M19-MEL melanoma
# [60] = test system: ACHN renal
# [61] = test system: LXFL 529 NSCLC
# [62] = test system: SR leukemia
# [63] = test system: TK-10 renal
compound,measurement,setting,value
C=CCc1cccc(/C=N\N=C(/N)NO)c1O,TGI,[1],10.6 µM
same,TGI,[2],11.5 µM
same,TGI,[3],> 100 µM
same,TGI,[4],30.6 µM
same,TGI,[5],22.7 µM
same,TGI,[6],> 29.3 µM
same,TGI,[7],7.08 µM
same,TGI,[8],> 100 µM
same,TGI,[9],12.9 µM
same,TGI,[10],> 26.8 µM
same,TGI,[11],11.6 µM
same,TGI,[12],> 54.4 µM
same,TGI,[13],9.65 µM
same,TGI,[14],26.5 µM
same,TGI,[15],9.01 µM
same,TGI,[16],25.9 µM
same,TGI,[17],14.6 µM
same,TGI,[18],19.2 µM
same,TGI,[19],38.3 µM
same,TGI,[20],9.82 µM
same,TGI,[21],> 79.6 µM
same,TGI,[22],6.69 µM
same,TGI,[23],> 100 µM
same,TGI,[24],> 25.2 µM
same,TGI,[25],> 100 µM
same,TGI,[26],> 88.3 µM
same,TGI,[27],> 67.9 µM
same,TGI,[28],> 21.4 µM
same,TGI,[29],> 100 µM
same,TGI,[30],32.5 µM
same,TGI,[31],> 27 µM
same,TGI,[32],> 80.9 µM
same,TGI,[33],17.7 µM
same,TGI,[34],29.1 µM
same,TGI,[35],52.6 µM
same,TGI,[36],31.8 µM
same,TGI,[37],17.1 µM
same,TGI,[38],6.81 µM
same,TGI,[39],> 88.1 µM
same,TGI,[40],64.3 µM
same,TGI,[41],7.09 µM
same,TGI,[42],3.19 µM
same,TGI,[43],> 94.4 µM
same,TGI,[44],33.5 µM
same,TGI,[45],> 100 µM
same,TGI,[46],70.9 µM
same,TGI,[47],> 58.5 µM
same,TGI,[48],> 51.6 µM
same,TGI,[49],> 74.9 µM
same,TGI,[50],> 47.9 µM
same,TGI,[51],33.1 µM
same,TGI,[52],> 29.7 µM
same,TGI,[53],20.7 µM
same,TGI,[54],16.5 µM
same,TGI,[55],7.11 µM
C#CCN(N=O)C(=O)NCCCC(NC(C)=O)C(=O)NCc1ccccc1 (stereo unspecified),TGI,[1],> 100 µM
same,TGI,[56],> 100 µM
same,TGI,[2],> 100 µM
same,TGI,[3],> 100 µM
same,TGI,[57],> 100 µM
same,TGI,[4],> 100 µM
same,TGI,[5],> 100 µM
same,TGI,[58],> 100 µM
same,TGI,[59],> 100 µM
same,TGI,[60],> 100 µM
same,TGI,[7],> 100 µM
same,TGI,[8],> 100 µM
same,TGI,[9],> 100 µM
same,TGI,[10],> 100 µM
same,TGI,[13],84.4 µM
same,TGI,[61],> 100 µM
same,TGI,[14],> 100 µM
same,TGI,[15],> 100 µM
same,TGI,[16],> 100 µM
same,TGI,[17],> 100 µM
same,TGI,[18],> 100 µM
same,TGI,[19],> 100 µM
same,TGI,[21],> 100 µM
same,TGI,[22],> 100 µM
same,TGI,[23],> 100 µM
same,TGI,[24],> 100 µM
same,TGI,[25],> 100 µM
same,TGI,[26],> 100 µM
same,TGI,[27],> 100 µM
same,TGI,[29],> 100 µM
same,TGI,[30],> 100 µM
same,TGI,[62],51 µM
same,TGI,[31],70.3 µM
same,TGI,[32],> 100 µM
same,TGI,[33],> 100 µM
same,TGI,[34],> 100 µM
same,TGI,[63],> 100 µM
same,TGI,[35],> 100 µM
same,TGI,[36],> 100 µM
same,TGI,[37],> 100 µM
same,TGI,[38],> 100 µM
same,TGI,[39],> 100 µM
same,TGI,[40],> 100 µM
same,TGI,[41],> 100 µM
same,TGI,[43],> 100 µM
same,TGI,[44],> 100 µM
same,TGI,[45],> 100 µM
same,TGI,[46],> 100 µM
same,TGI,[47],> 100 µM
same,TGI,[48],> 100 µM
same,TGI,[49],> 100 µM
same,TGI,[50],> 100 µM
same,TGI,[51],> 100 µM
same,TGI,[52],> 100 µM
same,TGI,[53],> 100 µM
same,TGI,[55],> 100 µM
CCCCN=C1OCc2[nH][nH]c(=O)c21,TGI,[1],> 100 µM
same,TGI,[56],> 100 µM
same,TGI,[2],> 100 µM
same,TGI,[3],> 100 µM
same,TGI,[57],> 100 µM
same,TGI,[4],> 100 µM
same,TGI,[5],> 100 µM
same,TGI,[59],> 100 µM
same,TGI,[60],> 100 µM
same,TGI,[7],> 100 µM
same,TGI,[9],> 100 µM
same,TGI,[10],> 100 µM
same,TGI,[12],> 100 µM
same,TGI,[13],> 100 µM
same,TGI,[61],> 100 µM
same,TGI,[14],> 100 µM
same,TGI,[15],> 100 µM
same,TGI,[16],> 100 µM
same,TGI,[17],> 100 µM
same,TGI,[18],> 100 µM
same,TGI,[19],> 100 µM
same,TGI,[21],> 100 µM
same,TGI,[22],> 100 µM
same,TGI,[23],> 100 µM
same,TGI,[25],> 100 µM
same,TGI,[26],> 100 µM
same,TGI,[27],> 100 µM
same,TGI,[28],> 100 µM
same,TGI,[29],> 100 µM
same,TGI,[30],> 100 µM
same,TGI,[62],> 100 µM
same,TGI,[31],> 100 µM
same,TGI,[32],> 100 µM
same,TGI,[33],> 100 µM
same,TGI,[34],> 100 µM
same,TGI,[63],> 100 µM
same,TGI,[35],> 100 µM
same,TGI,[36],> 100 µM
same,TGI,[37],> 100 µM
same,TGI,[38],> 100 µM
same,TGI,[39],> 100 µM
same,TGI,[40],> 100 µM
same,TGI,[41],> 100 µM
same,TGI,[43],> 100 µM
same,TGI,[44],> 100 µM
same,TGI,[45],> 100 µM
same,TGI,[47],> 100 µM
same,TGI,[48],> 100 µM
same,TGI,[49],> 100 µM
same,TGI,[50],> 100 µM
same,TGI,[51],> 100 µM
same,TGI,[52],> 100 µM
same,TGI,[53],> 100 µM
same,TGI,[54],> 100 µM
same,TGI,[55],> 100 µM
